Reference: ChEMBL document CHEMBL4622952, “Synthesis and biological evaluation of Schizandrin derivatives as tubulin polymerization inhibitors” (Bioorg Med Chem Lett, 2020)
Active and inactive are the calls of the source. No cut-off for these calls is given here.

Columns and labels:
[1] = Induction of apoptosis in human RKOP3 cells assessed as necrotic cells at 5 uM measured after 48 hrs by annexinV-FITC/propidium iodide staining based flow cytometry analysis (reference value: 0 %); assay type: functional
[2] = tested on: DU-145; assay: Antiproliferative activity against human DU145 cells assessed as reduction in cell viability measured after 48 hrs by MTT assay; assay type: functional, cell-based
[3] = tested on: HEK293; assay: Cytotoxicity against human HEK293 cells assessed as reduction in cell viability measured after 48 hrs by MTT assay; assay type: cell-based; details: Homo sapiens, HEK293, 48 h; read-out: IC50
[4] = Induction of apoptosis in human RKOP3 cells assessed as live cells at 3.3 uM measured after 48 hrs by annexinV-FITC/propidium iodide staining based flow cytometry analysis (reference value: 98.19 %); assay type: functional
[5] = Induction of apoptosis in human RKOP3 cells assessed as late apoptotic cells at 5 uM measured after 48 hrs by annexinV-FITC/propidium iodide staining based flow cytometry analysis (reference value: 0.01 %); assay type: functional
[6] = Induction of apoptosis in human RKOP3 cells assessed as live cells at 5 uM measured after 48 hrs by annexinV-FITC/propidium iodide staining based flow cytometry analysis (reference value: 98.19 %); assay type: functional
[7] = Induction of apoptosis in human RKOP3 cells assessed as early apoptotic cells at 3.3 uM measured after 48 hrs by annexinV-FITC/propidium iodide staining based flow cytometry analysis (reference value: 1.8 %); assay type: functional
[8] = Induction of apoptosis in human RKOP3 cells assessed as necrotic cells at 1.5 uM measured after 48 hrs by annexinV-FITC/propidium iodide staining based flow cytometry analysis (reference value: 0 %); assay type: functional
[9] = (§1) Antiproliferative activity against human RKOP3 cells assessed as reduction in cell viability measured after 48 hrs by MTT assay; assay type: functional, cell-based
[10] = species on record: Homo sapiens; assay: as §1; assay type: functional, cell-based
[11] = tested on: HeLa; assay: Antiproliferative activity against human HeLa cells assessed as reduction in cell viability measured after 48 hrs by MTT assay; assay type: functional, cell-based
[12] = Induction of apoptosis in human RKOP3 cells assessed as necrotic cells at 3.3 uM measured after 48 hrs by annexinV-FITC/propidium iodide staining based flow cytometry analysis (reference value: 0 %); assay type: functional
[13] = Induction of apoptosis in human RKOP3 cells assessed as late apoptotic cells at 1.5 uM measured after 48 hrs by annexinV-FITC/propidium iodide staining based flow cytometry analysis (reference value: 0.01 %); assay type: functional
[14] = Induction of apoptosis in human RKOP3 cells assessed as early apoptotic cells at 5 uM measured after 48 hrs by annexinV-FITC/propidium iodide staining based flow cytometry analysis (reference value: 1.8 %); assay type: functional
[15] = Cell cycle arrest in human RKOP3 cells assessed as accumulation at G0/G1 phase at 3.3 uM measured after 24 hrs by propidium iodide staining based flow cytometry analysis (reference value: 59.59 %); assay type: functional
[16] = target: T1, Tubulin (Homo sapiens) (UniProt P68371+Q9H4B7+P0DPH7+P68366+Q13509+Q71U36+P04350+Q3ZCM7+P07437+P68363+Q9BQE3+Q6PEY2+Q13885+Q9BVA1+Q9BUF5); assay: Inhibition of tubulin polymerization in human HeLa cells assessed as disruption of microtubule network at 10 uM measured after 24 hrs by immunofluorescence assay; assay type: cell-based
[17] = Cell cycle arrest in human RKOP3 cells assessed as accumulation at G0/G1 phase at 1.5 uM measured after 24 hrs by propidium iodide staining based flow cytometry analysis (reference value: 59.59 %); assay type: functional
[18] = target: T1, Tubulin (Homo sapiens); assay: Inhibition of tubulin […] in human DU145 cells assessed as increase in soluble fraction of tubulin at […] measured after 24 hrs by Western blot analysis; assay type: cell-based; details: DU-145
[19] = Induction of apoptosis in human RKOP3 cells assessed as live cells at 1.5 uM measured after 48 hrs by annexinV-FITC/propidium iodide staining based flow cytometry analysis (reference value: 98.19 %); assay type: functional
[20] = tested on: A549; assay: Antiproliferative activity against human A549 cells assessed as reduction in cell viability measured after 48 hrs by MTT assay; assay type: functional, cell-based
[21] = Induction of apoptosis in human RKOP3 cells assessed as late apoptotic cells at 3.3 uM measured after 48 hrs by annexinV-FITC/propidium iodide staining based flow cytometry analysis (reference value: 0.01 %); assay type: functional
[22] = Cell cycle arrest in human RKOP3 cells assessed as accumulation at G0/G1 phase at 5 uM measured after 24 hrs by propidium iodide staining based flow cytometry analysis (reference value: 59.59 %); assay type: functional
[23] = Induction of apoptosis in human RKOP3 cells assessed as early apoptotic cells at 1.5 uM measured after 48 hrs by annexinV-FITC/propidium iodide staining based flow cytometry analysis (reference value: 1.8 %); assay type: functional

With CCCCCCCCCC(=O)O/N=C1\C=C2C[C@H](C)[C@@]3(C)Cc4cc(OC)c(OC)c(OC)c4C23C(OC)=C1OC (stereo partly specified) the Activity [1] was 0.04%, the inhibition [2] was “Dose-dependent effect” and the IC50 ([2]; DU-145, 48 h) was 10.5 µM. The IC50 [3] was 84.5 µM, the Activity [4] was 90.64% and the Activity [5] was 2.3%. It also gave an Activity [6] of 76.06%, an Activity [7] of 9.05% and an Activity [8] of 0%. The IC50 [9] was 3.35 µM, the inhibition [10] was “Dose-dependent effect” and the IC50 [11] was 60.2 µM. The inhibition [11] was “Dose-dependent effect”, the Activity [12] was 0.02% and the Activity [13] was 0.57%. For the same compound, the Activity [14] was 21.6%, the Activity [15] was 55.32% and the inhibition [16] was “Active”. For the same compound, the Activity [17] was 60.68%, the inhibition [18] was “Active” and the Activity [19] was 92.41%. The inhibition [20] was “Dose-dependent effect”, the IC50 ([20]; A549, 48 h) was 12.3 µM and the Activity [21] was 0.29%. The Activity [22] was 50.56% and the Activity [23] was 7.02%.
